{
  "source": "the kinase profiling compilation of Christmann-Franck et al. (2016)",
  "assay_in_all_cases": "radiometric filter-binding kinase assay, Kinaseprofiler",
  "key": {"[1]": {"test_system": "ABL1 (human), P00519 [T315I]", "details": "compound 1.0 µM; ATP 10 µM"}, "[2]": {"biological_target": "ACVR1B (human) (UniProt P36896)", "sequence (P36896 whole entry, looked up)": "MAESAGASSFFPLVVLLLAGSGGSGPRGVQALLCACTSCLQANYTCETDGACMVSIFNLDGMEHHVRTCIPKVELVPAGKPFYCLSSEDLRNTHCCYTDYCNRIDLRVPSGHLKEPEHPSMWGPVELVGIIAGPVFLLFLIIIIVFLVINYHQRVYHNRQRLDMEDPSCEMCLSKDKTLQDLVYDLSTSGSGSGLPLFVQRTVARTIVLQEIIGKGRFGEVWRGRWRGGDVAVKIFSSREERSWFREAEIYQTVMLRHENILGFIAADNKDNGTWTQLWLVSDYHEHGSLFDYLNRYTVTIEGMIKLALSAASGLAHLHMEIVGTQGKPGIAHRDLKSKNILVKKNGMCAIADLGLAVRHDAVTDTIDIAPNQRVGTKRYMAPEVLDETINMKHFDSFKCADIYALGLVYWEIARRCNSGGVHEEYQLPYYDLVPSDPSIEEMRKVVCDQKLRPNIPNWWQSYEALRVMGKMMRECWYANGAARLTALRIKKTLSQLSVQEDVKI", "details": "compound 1.0 µM; ATP 10 µM"}, "[3]": {"test_system": "AKT2 (human), P31751 [S474D]", "details": "compound 1.0 µM; ATP 200 µM"}, "[4]": {"test_system": "AXL (human), P30530 [Q764R]", "sequence (P30530 whole entry Q764R, looked up)": "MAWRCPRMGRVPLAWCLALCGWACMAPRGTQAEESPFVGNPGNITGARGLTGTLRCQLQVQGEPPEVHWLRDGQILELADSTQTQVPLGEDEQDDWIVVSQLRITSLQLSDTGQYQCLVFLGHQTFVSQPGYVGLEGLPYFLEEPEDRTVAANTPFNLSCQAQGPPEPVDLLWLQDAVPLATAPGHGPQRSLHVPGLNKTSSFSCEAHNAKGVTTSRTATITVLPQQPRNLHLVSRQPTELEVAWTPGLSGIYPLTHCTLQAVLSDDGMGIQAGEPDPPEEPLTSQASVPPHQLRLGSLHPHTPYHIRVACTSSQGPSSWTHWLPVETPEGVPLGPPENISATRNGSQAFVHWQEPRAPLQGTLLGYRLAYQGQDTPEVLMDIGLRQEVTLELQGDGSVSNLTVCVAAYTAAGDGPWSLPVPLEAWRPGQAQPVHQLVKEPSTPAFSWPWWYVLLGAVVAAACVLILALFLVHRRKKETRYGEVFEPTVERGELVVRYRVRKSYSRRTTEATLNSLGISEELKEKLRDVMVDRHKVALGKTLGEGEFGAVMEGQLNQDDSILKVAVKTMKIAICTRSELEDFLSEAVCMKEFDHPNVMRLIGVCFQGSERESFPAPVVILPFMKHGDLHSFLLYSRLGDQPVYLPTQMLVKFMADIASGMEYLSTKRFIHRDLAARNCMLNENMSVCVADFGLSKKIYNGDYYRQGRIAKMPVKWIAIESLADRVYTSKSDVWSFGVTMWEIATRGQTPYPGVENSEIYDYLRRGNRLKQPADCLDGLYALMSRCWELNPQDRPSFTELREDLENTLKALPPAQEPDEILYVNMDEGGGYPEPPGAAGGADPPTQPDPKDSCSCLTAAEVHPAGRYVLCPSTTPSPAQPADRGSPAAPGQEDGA", "details": "compound 1.0 µM; ATP 90 µM"}, "[5]": {"test_system": "BLK (human), P51451 [M278V]", "details": "compound 1.0 µM; ATP 45 µM"}, "[6]": {"biological_target": "CDK5 CDK5R1 p35 (human) (UniProt Q00535+Q15078)", "details": "compound 1.0 µM; ATP 15 µM"}, "[7]": {"biological_target": "CSNK1D (human) (UniProt P48730)", "sequence (P48730 whole entry, looked up)": "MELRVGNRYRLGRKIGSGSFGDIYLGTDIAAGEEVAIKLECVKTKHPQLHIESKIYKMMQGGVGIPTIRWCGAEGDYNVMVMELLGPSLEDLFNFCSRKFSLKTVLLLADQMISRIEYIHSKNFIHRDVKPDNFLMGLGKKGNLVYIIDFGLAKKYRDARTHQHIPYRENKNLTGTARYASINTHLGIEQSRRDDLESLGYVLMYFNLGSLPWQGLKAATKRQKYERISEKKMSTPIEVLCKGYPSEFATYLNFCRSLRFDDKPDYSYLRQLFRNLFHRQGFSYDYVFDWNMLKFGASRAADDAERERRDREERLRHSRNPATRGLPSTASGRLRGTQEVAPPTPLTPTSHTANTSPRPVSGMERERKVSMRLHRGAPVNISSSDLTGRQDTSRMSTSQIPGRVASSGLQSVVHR", "details": "compound 1.0 µM; ATP 70 µM"}, "[8]": {"biological_target": "DAPK1 (human) (UniProt P53355)", "details": "compound 1.0 µM; ATP 70 µM"}, "[9]": {"test_system": "EEF2K (human), O00418 [H23R]", "sequence (O00418 whole entry H23R, looked up)": "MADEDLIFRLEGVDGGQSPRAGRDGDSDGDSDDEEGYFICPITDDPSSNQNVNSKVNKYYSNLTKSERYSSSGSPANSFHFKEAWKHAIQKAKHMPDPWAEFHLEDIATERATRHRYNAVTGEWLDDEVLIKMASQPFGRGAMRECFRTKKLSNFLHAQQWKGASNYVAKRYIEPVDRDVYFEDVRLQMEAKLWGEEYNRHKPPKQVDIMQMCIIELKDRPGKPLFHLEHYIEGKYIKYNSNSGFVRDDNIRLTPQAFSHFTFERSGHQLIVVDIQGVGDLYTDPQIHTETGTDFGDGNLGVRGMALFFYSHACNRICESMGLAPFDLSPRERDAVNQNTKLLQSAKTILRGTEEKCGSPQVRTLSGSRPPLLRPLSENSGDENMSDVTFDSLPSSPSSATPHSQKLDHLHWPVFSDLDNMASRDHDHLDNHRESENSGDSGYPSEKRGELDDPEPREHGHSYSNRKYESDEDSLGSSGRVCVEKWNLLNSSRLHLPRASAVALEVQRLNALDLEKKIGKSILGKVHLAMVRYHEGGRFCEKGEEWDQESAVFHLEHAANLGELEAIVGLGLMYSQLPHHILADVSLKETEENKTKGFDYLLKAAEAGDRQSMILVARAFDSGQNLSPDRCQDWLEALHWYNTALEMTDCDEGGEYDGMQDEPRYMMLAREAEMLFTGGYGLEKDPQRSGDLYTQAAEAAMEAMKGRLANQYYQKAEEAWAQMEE", "details": "compound 1.0 µM; ATP 15 µM"}, "[10]": {"biological_target": "EPHA2 (human) (UniProt P29317)", "sequence (P29317 whole entry, looked up)": "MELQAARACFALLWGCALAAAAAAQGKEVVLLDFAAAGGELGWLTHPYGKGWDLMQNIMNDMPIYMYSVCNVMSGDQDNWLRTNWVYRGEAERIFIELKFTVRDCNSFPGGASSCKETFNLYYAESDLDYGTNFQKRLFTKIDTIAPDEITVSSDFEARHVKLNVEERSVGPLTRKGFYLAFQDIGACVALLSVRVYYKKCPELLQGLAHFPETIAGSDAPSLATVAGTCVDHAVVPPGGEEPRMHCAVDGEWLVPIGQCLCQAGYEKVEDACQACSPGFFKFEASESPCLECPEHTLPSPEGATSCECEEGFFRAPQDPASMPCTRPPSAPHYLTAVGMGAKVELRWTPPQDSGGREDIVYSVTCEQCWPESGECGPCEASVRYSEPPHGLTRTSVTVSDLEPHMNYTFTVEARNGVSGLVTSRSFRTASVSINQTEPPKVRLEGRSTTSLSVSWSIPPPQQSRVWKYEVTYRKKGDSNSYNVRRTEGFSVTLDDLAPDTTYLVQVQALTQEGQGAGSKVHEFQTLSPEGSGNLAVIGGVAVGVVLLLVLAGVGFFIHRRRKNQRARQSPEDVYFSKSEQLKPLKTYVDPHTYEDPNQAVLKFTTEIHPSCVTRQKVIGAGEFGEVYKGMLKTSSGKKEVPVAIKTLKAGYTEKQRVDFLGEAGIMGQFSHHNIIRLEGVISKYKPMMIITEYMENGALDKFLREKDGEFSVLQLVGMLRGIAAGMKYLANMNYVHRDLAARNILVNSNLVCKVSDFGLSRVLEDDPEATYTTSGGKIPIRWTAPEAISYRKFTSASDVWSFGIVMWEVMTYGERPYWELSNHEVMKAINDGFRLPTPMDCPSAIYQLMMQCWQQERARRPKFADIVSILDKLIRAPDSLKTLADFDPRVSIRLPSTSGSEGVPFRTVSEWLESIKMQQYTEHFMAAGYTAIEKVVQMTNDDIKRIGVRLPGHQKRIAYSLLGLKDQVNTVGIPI", "details": "compound 1.0 µM; ATP 155 µM"}, "[11]": {"biological_target": "EPHA3 (human) (UniProt P29320)", "details": "compound 1.0 µM; ATP 120 µM"}, "[12]": {"biological_target": "FER (human) (UniProt P16591)", "details": "compound 1.0 µM; ATP 70 µM"}, "[13]": {"biological_target": "FGFR3 (human) (UniProt P22607)", "details": "compound 1.0 µM; ATP 15 µM"}, "[14]": {"test_system": "FLT3 (human), P36888 [D835Y]", "details": "compound 1.0 µM; ATP 200 µM"}, "[15]": {"biological_target": "HCK (human) (UniProt P08631)", "details": "compound 1.0 µM; ATP 70 µM"}, "[16]": {"biological_target": "HIPK3 (human) (UniProt Q9H422)", "details": "compound 1.0 µM; ATP 15 µM"}, "[17]": {"biological_target": "JAK3 JH1 catalytic (human) (UniProt P52333)", "details": "compound 1.0 µM; ATP 10 µM"}, "[18]": {"test_system": "MAP2K4 (mouse)", "details": "compound 1.0 µM; accession and sequence are those of the human protein"}, "[19]": {"biological_target": "MAP2K6 (human) (UniProt P52564)", "details": "compound 1.0 µM; ATP 10 µM"}, "[20]": {"biological_target": "MAPK12 (human) (UniProt P53778)", "sequence (P53778 whole entry, looked up)": "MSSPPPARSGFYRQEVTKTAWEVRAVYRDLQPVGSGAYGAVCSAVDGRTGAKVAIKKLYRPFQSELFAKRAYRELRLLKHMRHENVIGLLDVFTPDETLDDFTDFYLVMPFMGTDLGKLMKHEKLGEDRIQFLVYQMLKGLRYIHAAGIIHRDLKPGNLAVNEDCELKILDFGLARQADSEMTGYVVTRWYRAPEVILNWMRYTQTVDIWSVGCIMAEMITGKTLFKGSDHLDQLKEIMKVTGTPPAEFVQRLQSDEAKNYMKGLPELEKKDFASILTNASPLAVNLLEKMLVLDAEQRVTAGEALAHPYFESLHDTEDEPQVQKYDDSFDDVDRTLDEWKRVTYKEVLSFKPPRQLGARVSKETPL", "details": "compound 1.0 µM; ATP 15 µM"}, "[21]": {"biological_target": "MAPK13 (human) (UniProt O15264)", "details": "compound 1.0 µM; ATP 15 µM"}, "[22]": {"biological_target": "MAPK14 (human) (UniProt Q16539)", "details": "compound 1.0 µM; ATP 90 µM"}, "[23]": {"test_system": "MAPKAPK2 (human), P49137 [A399G]", "details": "compound 1.0 µM; ATP 90 µM"}, "[24]": {"biological_target": "MKNK2 (human) (UniProt Q9HBH9)", "details": "compound 1.0 µM; ATP 120 µM"}, "[25]": {"biological_target": "NEK7 (human) (UniProt Q8TDX7)", "details": "compound 1.0 µM; ATP 45 µM"}, "[26]": {"biological_target": "NLK (human) (UniProt Q9UBE8)", "details": "compound 1.0 µM; ATP 200 µM"}, "[27]": {"biological_target": "PIM1 (human) (UniProt P11309)", "details": "compound 1.0 µM; ATP 90 µM"}, "[28]": {"biological_target": "PIM2 (human) (UniProt Q9P1W9)", "details": "compound 1.0 µM; ATP 15 µM"}, "[29]": {"biological_target": "PLK3 (human) (UniProt Q9H4B4)", "details": "compound 1.0 µM; ATP 70 µM"}, "[30]": {"biological_target": "PRKCB2 (human) (UniProt P05771)", "sequence (P05771 whole entry, looked up)": "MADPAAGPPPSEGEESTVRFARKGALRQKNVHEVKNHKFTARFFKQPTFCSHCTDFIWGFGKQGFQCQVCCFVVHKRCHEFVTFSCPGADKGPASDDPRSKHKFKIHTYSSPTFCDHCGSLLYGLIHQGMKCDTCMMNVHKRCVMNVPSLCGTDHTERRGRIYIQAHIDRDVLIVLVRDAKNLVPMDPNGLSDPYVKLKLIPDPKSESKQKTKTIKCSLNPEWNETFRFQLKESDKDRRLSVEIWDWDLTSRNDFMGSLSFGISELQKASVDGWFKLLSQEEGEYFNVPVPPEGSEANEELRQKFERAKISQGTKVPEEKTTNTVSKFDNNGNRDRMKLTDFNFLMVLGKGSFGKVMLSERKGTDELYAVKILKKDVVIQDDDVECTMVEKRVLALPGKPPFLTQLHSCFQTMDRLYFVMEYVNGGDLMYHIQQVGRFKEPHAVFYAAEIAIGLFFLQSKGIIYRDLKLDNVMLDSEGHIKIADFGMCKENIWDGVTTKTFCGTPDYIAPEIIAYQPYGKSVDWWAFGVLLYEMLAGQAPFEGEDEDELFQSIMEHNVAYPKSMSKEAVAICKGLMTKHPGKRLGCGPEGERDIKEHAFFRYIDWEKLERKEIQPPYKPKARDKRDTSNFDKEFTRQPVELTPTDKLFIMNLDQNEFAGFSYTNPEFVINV", "details": "compound 1.0 µM; ATP 10 µM"}, "[31]": {"biological_target": "PRKD2 (human) (UniProt Q9BZL6)", "details": "compound 1.0 µM; ATP 155 µM"}, "[32]": {"biological_target": "PTK2B (human) (UniProt Q14289)", "details": "compound 1.0 µM; ATP 90 µM"}, "[33]": {"biological_target": "RET (human) (UniProt P07949)", "details": "compound 1.0 µM; ATP 70 µM"}, "[34]": {"test_system": "SGK1 (human), O00141 [S422D]", "details": "compound 1.0 µM; ATP 90 µM"}, "[35]": {"biological_target": "STK11 (human) (UniProt Q15831)", "sequence (Q15831 whole entry, looked up)": "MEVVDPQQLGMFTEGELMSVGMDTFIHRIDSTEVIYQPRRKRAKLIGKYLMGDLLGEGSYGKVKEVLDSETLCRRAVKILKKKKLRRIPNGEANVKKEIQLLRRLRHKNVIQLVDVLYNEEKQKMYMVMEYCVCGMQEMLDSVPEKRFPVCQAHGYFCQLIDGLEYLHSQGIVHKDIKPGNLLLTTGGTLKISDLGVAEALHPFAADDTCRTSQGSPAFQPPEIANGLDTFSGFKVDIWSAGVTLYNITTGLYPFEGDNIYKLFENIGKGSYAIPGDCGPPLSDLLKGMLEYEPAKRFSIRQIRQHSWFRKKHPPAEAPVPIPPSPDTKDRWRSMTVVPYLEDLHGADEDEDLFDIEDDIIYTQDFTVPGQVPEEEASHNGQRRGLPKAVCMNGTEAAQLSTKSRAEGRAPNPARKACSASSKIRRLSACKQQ", "details": "compound 1.0 µM; ATP 155 µM"}, "[36]": {"biological_target": "STK3 (human) (UniProt Q13188)", "details": "compound 1.0 µM; ATP 155 µM"}, "[37]": {"biological_target": "TSSK2 (human) (UniProt Q96PF2)", "details": "compound 1.0 µM; ATP 15 µM"}, "[38]": {"biological_target": "WNK2 (human) (UniProt Q9Y3S1)", "details": "compound 1.0 µM; ATP 200 µM"}},
  "data": [
    {"smiles": "CN(C)S(=O)(=O)Nc1ccc2ccc3ncc(-c4cnn(C)c4)cc3c(=O)c2c1", "values": [
      {"measurement": "residual activity", "setting": "[1]", "result": 35, "unit": "%"},
      {"measurement": "residual activity", "setting": "[2]", "result": 100, "unit": "%"},
      {"measurement": "residual activity", "setting": "[3]", "result": 89, "unit": "%"},
      {"measurement": "residual activity", "setting": "[4]", "result": 17, "unit": "%"},
      {"measurement": "residual activity", "setting": "[5]", "result": 83, "unit": "%"},
      {"measurement": "residual activity", "setting": "[6]", "result": 93, "unit": "%"},
      {"measurement": "residual activity", "setting": "[7]", "result": 98, "unit": "%"},
      {"measurement": "residual activity", "setting": "[8]", "result": 90, "unit": "%"},
      {"measurement": "residual activity", "setting": "[9]", "result": 93, "unit": "%"},
      {"measurement": "residual activity", "setting": "[10]", "result": 80, "unit": "%"},
      {"measurement": "residual activity", "setting": "[11]", "result": 96, "unit": "%"},
      {"measurement": "residual activity", "setting": "[12]", "result": 56, "unit": "%"},
      {"measurement": "residual activity", "setting": "[13]", "result": 4, "unit": "%"},
      {"measurement": "residual activity", "setting": "[14]", "result": 2, "unit": "%"},
      {"measurement": "residual activity", "setting": "[15]", "result": 33, "unit": "%"},
      {"measurement": "residual activity", "setting": "[16]", "result": 102, "unit": "%"},
      {"measurement": "residual activity", "setting": "[17]", "result": 81, "unit": "%"},
      {"measurement": "residual activity", "setting": "[18]", "result": 87, "unit": "%"},
      {"measurement": "residual activity", "setting": "[19]", "result": 117, "unit": "%"},
      {"measurement": "residual activity", "setting": "[20]", "result": 103, "unit": "%"},
      {"measurement": "residual activity", "setting": "[21]", "result": 98, "unit": "%"},
      {"measurement": "residual activity", "setting": "[22]", "result": 124, "unit": "%"},
      {"measurement": "residual activity", "setting": "[23]", "result": 104, "unit": "%"},
      {"measurement": "residual activity", "setting": "[24]", "result": 33, "unit": "%"},
      {"measurement": "residual activity", "setting": "[25]", "result": 112, "unit": "%"},
      {"measurement": "residual activity", "setting": "[26]", "result": 103, "unit": "%"},
      {"measurement": "residual activity", "setting": "[27]", "result": 101, "unit": "%"},
      {"measurement": "residual activity", "setting": "[28]", "result": 98, "unit": "%"},
      {"measurement": "residual activity", "setting": "[29]", "result": 105, "unit": "%"},
      {"measurement": "residual activity", "setting": "[30]", "result": 105, "unit": "%"},
      {"measurement": "residual activity", "setting": "[31]", "result": 109, "unit": "%"},
      {"measurement": "residual activity", "setting": "[32]", "result": 101, "unit": "%"},
      {"measurement": "residual activity", "setting": "[33]", "result": 2, "unit": "%"},
      {"measurement": "residual activity", "setting": "[34]", "result": 96, "unit": "%"},
      {"measurement": "residual activity", "setting": "[35]", "result": 134, "unit": "%"},
      {"measurement": "residual activity", "setting": "[36]", "result": 90, "unit": "%"},
      {"measurement": "residual activity", "setting": "[37]", "result": 83, "unit": "%"},
      {"measurement": "residual activity", "setting": "[38]", "result": 126, "unit": "%"}
    ]}
  ]
}
